Assay results published in EP0550775A1, “Cephalosporin derivatives” (F. HOFFMANN-LA ROCHE AG, priority 1992, dated 1993).
Structures can show the parent of a compound that is named as a salt. Where two headings read alike, the source gives them in different places. Each block holds one compound with its values, some of them ahead of it.

What was measured:
E. coli 257 = test: microbe, parasite or virus in culture; assay type: cell-based; details: agar dilution
Protocol: (§1) In vitro activity of the compounds of the present invention was measured by the Minimum Inhibitory Concentration (MIC) in micrograms/ml utilizing the Agar Dilution Method, which is well known in the art, against a variety of gram-negative and gram-positive organisms.

E. coli ATCC 25922 = test: microbe, parasite or virus in culture; assay type: cell-based
Protocol: as §1

E. coli TEM-1 = test: microbe, parasite or virus in culture; assay type: cell-based; details: agar dilution
Protocol: as §1

Enter. cloacae P99 = test: microbe, parasite or virus in culture; assay type: cell-based; details: agar dilution
Protocol: as §1

Cit. freundi BS-16 = test: In vitro MIC, Agar Dilution Method; assay type: cell-based
Protocol: as §1

Enter. cloacae 5699 = test: In vitro MIC, Agar Dilution Method; assay type: cell-based
Protocol: as §1

K. pneumoniae A = test: In vitro MIC, Agar Dilution Method; assay type: cell-based
Protocol: as §1

Prot. mirabilis 90 = test: In vitro MIC, Agar Dilution Method; assay type: cell-based
Protocol: as §1

Prot. vulgaris 1028 BC = test: In vitro MIC, Agar Dilution Method; assay type: cell-based
Protocol: as §1

Prot. vulgaris ATCC 6380 = test: In vitro MIC, Agar Dilution Method; assay type: cell-based
Protocol: as §1

Ps. aeruginosa 18SH = test: In vitro MIC, Agar Dilution Method; assay type: cell-based
Protocol: as §1

Ps. aeruginosa 5712 = test: In vitro MIC, Agar Dilution Method; assay type: cell-based
Protocol: as §1

Ps. aeruginosa 765 = test: In vitro MIC, Agar Dilution Method; assay type: cell-based
Protocol: as §1

Ps. aeruginosa 8780 = test: In vitro MIC, Agar Dilution Method; assay type: cell-based
Protocol: as §1

[1] = tested on: Ps. aeruginosa ATCC 27853; test: In vitro MIC, Agar Dilution Method; assay type: cell-based
Protocol: as §1

Ser. marcescens 1071 = test: In vitro MIC, Agar Dilution Method; assay type: cell-based
Protocol: as §1

Ser. marcescens SM = test: In vitro MIC, Agar Dilution Method; assay type: cell-based
Protocol: as §1

Staph. aureus 1059B = test: In vitro MIC, Agar Dilution Method; assay type: cell-based
Protocol: as §1

Staph. aureus 67 = test: In vitro MIC, Agar Dilution Method; assay type: cell-based
Protocol: as §1

Staph. aureus 753 = test: In vitro MIC, Agar Dilution Method; assay type: cell-based
Protocol: as §1

Staph. aureus ATCC 29213 = test: In vitro MIC, Agar Dilution Method; assay type: cell-based
Protocol: as §1

Staph. aureus Smith = test: In vitro MIC, Agar Dilution Method; assay type: cell-based
Protocol: as §1

Str. faecalis ATCC 29212 = test: In vitro MIC, Agar Dilution Method; assay type: cell-based
Protocol: as §1

Str. pneumoniae 6301 = test: In vitro MIC, Agar Dilution Method; assay type: cell-based
Protocol: as §1

Str. pyogenes 4 = test: In vitro MIC, Agar Dilution Method; assay type: cell-based
Protocol: as §1

[2] = Chemical stability (half-life) in phosphate buffer by HPLC; assay type: physicochemical; details: pH 7.4, phosphate buffer (pH7.40; 37°C)
Protocol: Chemical stability (half-life) in phosphate buffer (pH 7.40; 37°C) of some of the compounds of the present invention was determined using high performance liquid chromatography (HPLC). A Hamilton PRP-1 (250 mm x 4.1 mm) column was used with UV detection at 280 nm. The mobile phase used consisted of a 0.01 M solution of tetradecyltrimethylammonium bromide in a mixture of 70% 0.072M phosphate buffer (pH 8.2) and 30% acetonitrile. In some experiments, minor adjustments to the pH and in the acetonitrile concentration were made to improve resolutions.

[3] = Enter. cloacae 5699, agar dilution
[4] = Prot. mirabilis 90, agar dilution
[5] = Ser. marcescens 1071, agar dilution
[6] = Staph. aureus 67, agar dilution
[7] = Str. faecalis ATCC 29212, agar dilution
[8] = Str. pneumoniae 6301, agar dilution
[9] = Escherichia coli, read-out: MIC
[10] = Pseudomonas aeruginosa, read-out: MIC
[11] = Staphylococcus aureus, read-out: MIC

Structure (SMILES): CC(C)(O/N=C(\C(=O)N[C@@H]1C(=O)N2C(C(=O)[O-])=C(CN3CCN(c4cc5c(cc4F)c(=O)c(C(=O)O)cn5C4CC4)CC3)CS[C@H]12)c1csc(N)n1)C(=O)O.[Na+] [Compound A, [6R-[6α,7β(Z)]]-7-[[(2-Amino-4-thiazolyl)[(1-carboxy-1-methylethoxy)imino]acetyl]amino]-3-[[4-(3-carboxy-1-cyclopropyl-6-fluoro-1,4-dihydro-4-oxo-7-quinolinyl)-1-piperazinyl]methyl]-8-oxo-5-thia-1-azabicyclo[4.2.0]oct-2-ene-2-carboxylic acid sodium salt]
MIC (E. coli 257): 0.25 mg/mL
MIC (E. coli ATCC 25922; agar dilution): 0.25 mg/mL
MIC (E. coli TEM-1): 0.5 mg/mL
MIC (Enter. cloacae P99): 0.5 mg/mL
MIC (Cit. freundi BS-16): 0.125 mg/mL
MIC (Enter. cloacae 5699; [3]): 1 mg/mL
MIC (K. pneumoniae A; K. pneumoniae A, agar dilution): 0.5 mg/mL
MIC (Prot. mirabilis 90; [4]): 2 mg/mL
MIC (Prot. vulgaris 1028 BC): 1 mg/mL
MIC (Prot. vulgaris ATCC 6380): 0.5 mg/mL
MIC (Ps. aeruginosa 18SH): 2 mg/mL
MIC (Ps. aeruginosa 5712): 16 mg/mL
MIC (Ps. aeruginosa 765): 8 mg/mL
MIC (Ps. aeruginosa 8780): 8 mg/mL
MIC [1]: 8 mg/mL
MIC (Ser. marcescens 1071; [5]): 1 mg/mL
MIC (Ser. marcescens SM): 1 mg/mL
MIC (Staph. aureus 1059B): 4 mg/mL
MIC (Staph. aureus 67; [6]): 16 mg/mL
MIC (Staph. aureus 753): 8 mg/mL
MIC (Staph. aureus ATCC 29213): 8 mg/mL
MIC (Staph. aureus Smith): 8 mg/mL
MIC (Str. faecalis ATCC 29212; [7]): 8 mg/mL
MIC (Str. pneumoniae 6301; [8]): 0.25 mg/mL
MIC (Str. pyogenes 4; Str. pyogenes 4, agar dilution): 0.25 mg/mL

MIC (E. coli 257): 0.25 mg/mL
MIC (E. coli ATCC 25922; agar dilution): 0.5 mg/mL
MIC (E. coli TEM-1): 0.5 mg/mL
MIC (Enter. cloacae P99): 0.25 mg/mL
MIC (Cit. freundi BS-16): 1 mg/mL
MIC (Enter. cloacae 5699; [3]): 1 mg/mL
MIC (K. pneumoniae A; K. pneumoniae A, agar dilution): 1 mg/mL
MIC (Prot. mirabilis 90; [4]): 2 mg/mL
MIC (Prot. vulgaris 1028 BC): 1 mg/mL
MIC (Prot. vulgaris ATCC 6380): 0.25 mg/mL
MIC (Ps. aeruginosa 18SH): 4 mg/mL
MIC (Ps. aeruginosa 5712): 32 mg/mL
MIC (Ps. aeruginosa 765): 8 mg/mL
MIC (Ps. aeruginosa 8780): 8 mg/mL
MIC [1]: 16 mg/mL
MIC (Ser. marcescens 1071; [5]): 2 mg/mL
MIC (Ser. marcescens SM): 1 mg/mL
MIC (Staph. aureus 1059B): 2 mg/mL
MIC (Staph. aureus 67; [6]): 32 mg/mL
MIC (Staph. aureus 753): 8 mg/mL
MIC (Staph. aureus ATCC 29213): 8 mg/mL
MIC (Staph. aureus Smith): 8 mg/mL
MIC (Str. faecalis ATCC 29212; [7]): 16 mg/mL
MIC (Str. pneumoniae 6301; [8]): 0.25 mg/mL
MIC (Str. pyogenes 4; Str. pyogenes 4, agar dilution): 0.125 mg/mL
Structure (SMILES): Nc1nc(/C(=N/OCC(=O)O)C(=O)N[C@@H]2C(=O)N3C(C(=O)[O-])=C(CN4CCN(c5cc6c(cc5F)c(=O)c(C(=O)O)cn6C5CC5)CC4)CS[C@H]23)cs1.[Na+] [Compound B, [6R-[6α,7β(Z)]]-7-[[(2-Amino-4-thiazolyl)[(carboxy-methoxy)imino]acetyl]amino]-3-[[4-(3-carboxy-1-cyclopropyl-6-fluoro-1,4-dihydro-4-oxo-7-quinolinyl)-1-piperazinyl]methyl]-8-oxo-5-thia-1-azabicyclo[4.2.0]oct-2-ene-2-carboxylic acid sodium salt]

Structure (SMILES): N[C@@H](C(=O)N[C@@H]1C(=O)N2C(C(=O)O)=C(CN3CCN(c4cc5c(cc4F)c(=O)c(C(=O)O)cn5C4CC4)CC3)CS[C@H]12)c1ccccc1 [Compound D, [6R-[6α,7β(R)]]-7-[(Aminophenylacetyl)amino]-3-[[4-(3-carboxy-1-cyclopropyl-6-fluoro-1,4-dihydro-4-oxo-7-quinolinyl)-1-piperazinyl]methyl]-8-oxo-5-thia-1-azabicyclo[4.2.0]oct-2-ene-2-carboxylic acid trifluoroacetic acid salt]
MIC (E. coli 257; [9]): 0.0313 mg/mL
MIC (E. coli ATCC 25922; Escherichia coli, ATCC25922, agar dilution, read-out: MIC): 0.0313 mg/mL
MIC (E. coli TEM-1; [9]): 0.0313 mg/mL
MIC (Enter. cloacae P99; Enterobacter cloacae, read-out: MIC): 0.0313 mg/mL
MIC (Cit. freundi BS-16; read-out: MIC): 0.0625 mg/mL
MIC (Enter. cloacae 5699; Enterobacter cloacae, Enter. cloacae 5699, agar dilution, read-out: MIC): 0.125 mg/mL
MIC (K. pneumoniae A; Klebsiella pneumoniae, K. pneumoniae A, agar dilution, read-out: MIC): 0.0313 mg/mL
MIC (Prot. mirabilis 90; Proteus mirabilis, Prot. mirabilis 90, agar dilution, read-out: MIC): 0.25 mg/mL
MIC (Prot. vulgaris 1028 BC; Proteus vulgaris, read-out: MIC): 0.0625 mg/mL
MIC (Prot. vulgaris ATCC 6380; Proteus vulgaris, ATCC6380, read-out: MIC): 0.0625 mg/mL
MIC (Ps. aeruginosa 18SH; [10]): 1 mg/mL
MIC (Ps. aeruginosa 5712; [10]): 4 mg/mL
MIC (Ps. aeruginosa 765; [10]): 2 mg/mL
MIC (Ps. aeruginosa 8780; [10]): 1 mg/mL
MIC ([1]; Pseudomonas aeruginosa, ATCC27853, read-out: MIC): 1 mg/mL
MIC (Ser. marcescens 1071; Serratia marcescens, Ser. marcescens 1071, agar dilution, read-out: MIC): 0.125 mg/mL
MIC (Ser. marcescens SM; Serratia marcescens, read-out: MIC): 0.125 mg/mL
MIC (Staph. aureus 1059B; [11]): 1 mg/mL
MIC (Staph. aureus 67; Staphylococcus aureus, Staph. aureus 67, agar dilution, read-out: MIC): 2 mg/mL
MIC (Staph. aureus 753; [11]): 2 mg/mL
MIC (Staph. aureus ATCC 29213; Staphylococcus aureus, ATCC29213, read-out: MIC): 1 mg/mL
MIC (Staph. aureus Smith; [11]): 0.5 mg/mL
MIC (Str. faecalis ATCC 29212; Enterococcus faecalis, ATCC29212, Str. faecalis ATCC 29212, agar dilution, read-out: MIC): 4 mg/mL
MIC (Str. pneumoniae 6301; Streptococcus pneumoniae, Str. pneumoniae 6301, agar dilution, read-out: MIC): 2 mg/mL
MIC (Str. pyogenes 4; Streptococcus pyogenes, Str. pyogenes 4, agar dilution, read-out: MIC): 1 mg/mL

Structure (SMILES): O=C([O-])C1=C(CN2CCN(c3cc4c(cc3F)c(=O)c(C(=O)[O-])cn4C3CC3)CC2)CS[C@@H]2[C@H](NC(=O)C(C(=O)[O-])c3ccccc3)C(=O)N12.[Na+].[Na+].[Na+] (stereo partly drawn) [Compound F, (6R-trans)-3-[[4-(3-Carboxy-1-cyclopropyl-6-fluoro-1,4-dihydro-4-oxo-7-quinolinyl)-1-piperazinyl]methyl]-7-[(carboxyphenylacetyl)amino]-8-oxo-5-thia-1-azabicyclo[4.2.0]oct-2-ene-2-carboxylic acid sodium salt]
MIC (Enter. cloacae 5699; Enterobacter cloacae, 5699): 0.5 mg/mL
MIC (K. pneumoniae A; Klebsiella pneumoniae): 1 mg/mL
MIC (Prot. mirabilis 90; Proteus mirabilis, 90): 1 mg/mL
MIC (Ser. marcescens 1071; Serratia marcescens, 1071): 0.5 mg/mL
MIC (Staph. aureus 67; Staphylococcus aureus, 67): 8 mg/mL
MIC (Str. faecalis ATCC 29212; Enterococcus faecalis, ATCC29212): 32 mg/mL
MIC (Str. pneumoniae 6301; Streptococcus pneumoniae, 6301): 0.5 mg/mL
MIC (Str. pyogenes 4; Streptococcus pyogenes, 4): 0.5 mg/mL
half-life [2]: 9.5 days

Structure (SMILES): CC(C)(O/N=C(\C(=O)N[C@@H]1C(=O)N2C(C(=O)[O-])=C(CN3CCN(c4cc5c(cc4F)c(=O)c(C(=O)[O-])cn5C4CC4)CC3)CS[C@H]12)c1csc(N)n1)C(=O)NNC(=O)c1ccc(O)c(O)c1.[Na+].[Na+] [Compound G, [6R-[6α,7β(Z)]]-7-[[[(2-Amino-4-thiazolyl)[1-[[(3,4-dihydroxybenzoyl)hydrazino]carbonyl]-1-methylethoxy]imino]acetyl]amino]-3-[[4-(3-carboxy-1-cyclopropyl-6-fluoro-1,4-dihydro-4-oxo-7-quinolinyl)-1-piperazinyl]methyl]-8-oxo-5-thia-1-azabicyclo[4.2.0]oct-2-ene-2-carboxylic acid sodium salt]
MIC (E. coli 257): 0.125 mg/mL
MIC (E. coli ATCC 25922; agar dilution): 0.125 mg/mL
MIC (E. coli TEM-1): 0.0625 mg/mL
MIC (Enter. cloacae P99): 0.25 mg/mL
MIC (Cit. freundi BS-16): 0.25 mg/mL
MIC (Enter. cloacae 5699; [3]): 0.25 mg/mL
MIC (K. pneumoniae A; K. pneumoniae A, agar dilution): 0.5 mg/mL
MIC (Prot. mirabilis 90; [4]): 0.5 mg/mL
MIC (Prot. vulgaris 1028 BC): 0.25 mg/mL
MIC (Prot. vulgaris ATCC 6380): 0.125 mg/mL
MIC (Ps. aeruginosa 18SH): 0.5 mg/mL
MIC (Ps. aeruginosa 5712): 0.25 mg/mL
MIC (Ps. aeruginosa 765): 0.5 mg/mL
MIC (Ps. aeruginosa 8780): 0.25 mg/mL
MIC [1]: 0.5 mg/mL
MIC (Ser. marcescens 1071; [5]): 0.5 mg/mL
MIC (Ser. marcescens SM): 0.5 mg/mL
MIC (Staph. aureus 1059B): 4 mg/mL
MIC (Staph. aureus 67; [6]): 8 mg/mL
MIC (Staph. aureus 753): 4 mg/mL
MIC (Staph. aureus ATCC 29213): 4 mg/mL
MIC (Staph. aureus Smith): 2 mg/mL
MIC (Str. faecalis ATCC 29212; [7]): 4 mg/mL
MIC (Str. pneumoniae 6301; [8]): 0.125 mg/mL
MIC (Str. pyogenes 4; Str. pyogenes 4, agar dilution): 0.25 mg/mL
